In patent US8445492B2, “Method for inhibiting growth of cancer cells and cell telomere and diseases of cell proliferation by using heteroannelated anthraquinone derivative compounds” (National Defense Medical Center, priority 2008, dated 2013):

Key:
Format in all cases: cell-based
COLO 205 = assay: NCI DTP in-vitro dose response, Colon Cancer
HCC-2998 = assay: NCI DTP in-vitro dose response, Colon Cancer
HCT-116 = assay: NCI DTP in-vitro dose response, Colon Cancer
HCT-15 = assay: NCI DTP in-vitro dose response, Colon Cancer
HT29 = assay: NCI DTP in-vitro dose response, Colon Cancer
KM12 = assay: NCI DTP in-vitro dose response, Colon Cancer
SW-620 = assay: NCI DTP in-vitro dose response, Colon Cancer
SF-268 = assay: NCI DTP in-vitro dose response, CNS Cancer
SF-295 = assay: NCI DTP in-vitro dose response, CNS Cancer
SF-539 = assay: NCI DTP in-vitro dose response, CNS Cancer
SNB-19 = assay: NCI DTP in-vitro dose response, CNS Cancer
SNB-75 = assay: NCI DTP in-vitro dose response, CNS Cancer
U251 = assay: NCI DTP in-vitro dose response, CNS Cancer

## O=C1c2ccccc2C(=O)c2c1ccc1nccnc21 [TABLE 5-3]
COLO 205
  CC50: > 100 µM
  TGI: 2.84E−5
COLO 205; Log10 Concentration −4.0
  Percent Growth: −35%
COLO 205; Log10 Concentration −5.0
  Percent Growth: 29%
COLO 205; Log10 Concentration −6.0
  Percent Growth: 74%
COLO 205; Log10 Concentration −7.0
  Percent Growth: 86%
COLO 205; Log10 Concentration −8.0
  Percent Growth: 92%
COLO 205; read-out: GI50
  GI50: 3.4 µM
HCC-2998
  CC50: > 100 µM
  TGI: 8.35E−5
HCC-2998; Log10 Concentration −4.0
  Percent Growth: −3%
HCC-2998; Log10 Concentration −5.0
  Percent Growth: 40%
HCC-2998; Log10 Concentration −6.0
  Percent Growth: 52%
HCC-2998; Log10 Concentration −7.0
  Percent Growth: 94%
HCC-2998; Log10 Concentration −8.0
  Percent Growth: 97%
HCC-2998; read-out: GI50
  GI50: 1.4 µM
HCT-116
  CC50: > 100 µM
  TGI: >1.00E−4
HCT-116; Log10 Concentration −4.0
  Percent Growth: 3%
HCT-116; Log10 Concentration −5.0
  Percent Growth: 55%
HCT-116; Log10 Concentration −6.0
  Percent Growth: 91%
HCT-116; Log10 Concentration −7.0
  Percent Growth: 99%
HCT-116; Log10 Concentration −8.0
  Percent Growth: 96%
HCT-116; read-out: GI50
  GI50: 12.3 µM
HCT-15
  CC50: > 100 µM
  TGI: 8.43E−5
HCT-15; Log10 Concentration −4.0
  Percent Growth: −3%
HCT-15; Log10 Concentration −5.0
  Percent Growth: 37%
HCT-15; Log10 Concentration −6.0
  Percent Growth: 77%
HCT-15; Log10 Concentration −7.0
  Percent Growth: 84%
HCT-15; Log10 Concentration −8.0
  Percent Growth: 88%
HCT-15; read-out: GI50
  GI50: 4.63 µM
HT29
  CC50: > 100 µM
  TGI: >1.00E−4
HT29; Log10 Concentration −4.0
  Percent Growth: 1%
HT29; Log10 Concentration −5.0
  Percent Growth: 46%
HT29; Log10 Concentration −6.0
  Percent Growth: 74%
HT29; Log10 Concentration −7.0
  Percent Growth: 95%
HT29; Log10 Concentration −8.0
  Percent Growth: 99%
HT29; read-out: GI50
  GI50: 7.01 µM
KM12
  CC50: > 100 µM
  TGI: 4.95E−5
KM12; Log10 Concentration −4.0
  Percent Growth: −18%
KM12; Log10 Concentration −5.0
  Percent Growth: 40%
KM12; Log10 Concentration −6.0
  Percent Growth: 76%
KM12; Log10 Concentration −7.0
  Percent Growth: 90%
KM12; Log10 Concentration −8.0
  Percent Growth: 89%
KM12; read-out: GI50
  GI50: 5.26 µM
SW-620
  CC50: > 100 µM
  TGI: 3.08E−5
SW-620; Log10 Concentration −4.0
  Percent Growth: −26%
SW-620; Log10 Concentration −5.0
  Percent Growth: 25%
SW-620; Log10 Concentration −6.0
  Percent Growth: 58%
SW-620; Log10 Concentration −7.0
  Percent Growth: 87%
SW-620; Log10 Concentration −8.0
  Percent Growth: 94%
SW-620; read-out: GI50
  GI50: 1.71 µM

## CCc1nc2ccc3c(c2[nH]1)C(=O)c1ccccc1C3=O [TABLE 4-4]
SF-268
  CC50: > 100 µM
  TGI: >1.00E−4
SF-268; Log10 Concentration −4.0
  Percent Growth: 28%
SF-268; Log10 Concentration −5.0
  Percent Growth: 57%
SF-268; Log10 Concentration −6.0
  Percent Growth: 88%
SF-268; Log10 Concentration −7.0
  Percent Growth: 96%
SF-268; Log10 Concentration −8.0
  Percent Growth: 87%
SF-268; read-out: GI50
  GI50: 17.7 µM
SF-295
  CC50: > 100 µM
  TGI: >1.00E−4
SF-295; Log10 Concentration −4.0
  Percent Growth: 9%
SF-295; Log10 Concentration −5.0
  Percent Growth: 35%
SF-295; Log10 Concentration −6.0
  Percent Growth: 69%
SF-295; Log10 Concentration −7.0
  Percent Growth: 90%
SF-295; Log10 Concentration −8.0
  Percent Growth: 88%
SF-295; read-out: GI50
  GI50: 3.65 µM
SF-539
  CC50: > 100 µM
  TGI: >1.00E−4
SF-539; Log10 Concentration −4.0
  Percent Growth: 13%
SF-539; Log10 Concentration −5.0
  Percent Growth: 46%
SF-539; Log10 Concentration −6.0
  Percent Growth: 80%
SF-539; Log10 Concentration −7.0
  Percent Growth: 83%
SF-539; Log10 Concentration −8.0
  Percent Growth: 81%
SF-539; read-out: GI50
  GI50: 7.46 µM
SNB-19
  CC50: > 100 µM
  TGI: >1.00E−4
SNB-19; Log10 Concentration −4.0
  Percent Growth: 39%
SNB-19; Log10 Concentration −5.0
  Percent Growth: 61%
SNB-19; Log10 Concentration −6.0
  Percent Growth: 92%
SNB-19; Log10 Concentration −7.0
  Percent Growth: 94%
SNB-19; Log10 Concentration −8.0
  Percent Growth: 84%
SNB-19; read-out: GI50
  GI50: 30.9 µM
SNB-75
  CC50: > 100 µM
  TGI: >1.00E−4
SNB-75; Log10 Concentration −4.0
  Percent Growth: 17%
SNB-75; Log10 Concentration −5.0
  Percent Growth: 41%
SNB-75; Log10 Concentration −6.0
  Percent Growth: 49%
SNB-75; Log10 Concentration −7.0
  Percent Growth: 66%
SNB-75; Log10 Concentration −8.0
  Percent Growth: 66%
SNB-75; read-out: GI50
  GI50: 0.872 µM
U251
  CC50: > 100 µM
  TGI: >1.00E−4
U251; Log10 Concentration −4.0
  Percent Growth: 27%
U251; Log10 Concentration −5.0
  Percent Growth: 49%
U251; Log10 Concentration −6.0
  Percent Growth: 84%
U251; Log10 Concentration −7.0
  Percent Growth: 96%
U251; Log10 Concentration −8.0
  Percent Growth: 94%
U251; read-out: GI50
  GI50: 9.58 µM
